Source: patent publication US8906852B2 (MethylGene Inc., priority 2010, dated 2014)

target: T1, VEGFR/KDR (Homo sapiens, UniProt P35968); experiment: VEGFR/KDR kinase inhibition, DELFIA assay; type: biochemical; conditions: ATP 0.6 uM (2x Km), enzyme 5 nM
T1 construct: made in house; host or cells: Sf9 cells (Spodoptera frugiperda), baculovirus
Method: Inhibition of VEGFR/KDR is measured in a DELFIA™ assay (Perkin Elmer). The substrate poly(Glu4, Tyr) is immobilized onto black high-binding polystyrene 96-well plates. The coated plates are washed and stored at 4° C. During the assay, the enzyme is pre-incubated with inhibitor and Mg-ATP on ice in polypropylene 96-well plates for 4 minutes, and then transferred to the coated plates. The subsequent kinase reaction takes place at 30° C. for 10-30 minutes. ATP concentrations in the assay are 0.6 uM for VEGFR/KDR (2× the Km). Enzyme concentration is 5 nM. After incubation, the kinase reactions are quenched with EDTA and the plates are washed. Phosphorylated product is detected by incubation with Europium-labeled anti-phosphotyrosine MoAb. After washing the plates, bound MoAb is detected by time-resolved fluorescence in a Gemini SpectraMax reader (Molecular Devices). Compounds are evaluated over a range of concentrations, and IC50 values (concentration of compounds giving 50% inhibition of enzymatic activity) are determined.

T1 sequence (P35968 806-1356): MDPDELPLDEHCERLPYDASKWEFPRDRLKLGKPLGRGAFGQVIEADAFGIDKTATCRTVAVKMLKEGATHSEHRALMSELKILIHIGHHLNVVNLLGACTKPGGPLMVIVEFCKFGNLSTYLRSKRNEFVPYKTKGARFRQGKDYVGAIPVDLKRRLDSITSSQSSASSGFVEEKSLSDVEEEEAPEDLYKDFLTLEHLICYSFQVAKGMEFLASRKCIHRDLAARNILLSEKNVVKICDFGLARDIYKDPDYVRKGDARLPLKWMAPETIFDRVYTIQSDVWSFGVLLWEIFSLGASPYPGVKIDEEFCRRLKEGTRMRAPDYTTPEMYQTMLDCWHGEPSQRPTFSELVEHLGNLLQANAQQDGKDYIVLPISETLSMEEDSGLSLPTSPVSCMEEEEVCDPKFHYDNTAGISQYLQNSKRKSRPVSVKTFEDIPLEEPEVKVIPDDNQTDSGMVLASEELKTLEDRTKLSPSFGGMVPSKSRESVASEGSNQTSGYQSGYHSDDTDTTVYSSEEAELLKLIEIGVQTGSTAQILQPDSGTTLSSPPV

| IC50 | Compound |
| --- | --- |
| < 50 nM | O=C(Nc1ccc(Oc2ccnc3cc(-c4ccc(CN5CC(O)CC5=O)cn4)sc23)c(F)c1)NC1CC1 (racemic) [Compound 111, (±)-1-cyclopropyl-3-(3-fluoro-4-(2-(5-((4-hydroxy-2-oxopyrrolidin-1-yl)methyl)pyridin-2-yl)thieno[3,2-b]pyridin-7-yloxy)phenyl)urea] |
| < 50 nM | CN(C[C@@H](O)[C@H](O)[C@@H](O)[C@@H](O)CO)C(=O)c1ccc(-c2cc3nccc(Oc4ccc(NC(=O)NC5CC5)cc4F)c3s2)nc1 (stereo in doubt) [Compound 244, 6-(7-(4-(3-cyclopropylureido)-2-fluorophenoxy)thieno[3,2-b]pyridin-2-yl)-N-methyl-N-((2R,3S,4S,5S)-2,3,4,5,6-pentahydroxyhexyl)nicotinamide] |
| < 50 nM | CC(=O)N[C@H]1CCN(Cc2ccc(-c3cc4nccc(Oc5ccc(NC(=O)NC6CC6)cc5F)c4s3)nc2)C1=O [Compound 44, (S)-N-(l-((6-(7-(4-(3-cyclopropylureido)-2-fluorophenoxy)thieno[3,2-b]pyridin-2-yl)pyridin-3-yl)methyl)-2-oxopyrrolidin-3-yl)acetamide] |
| < 50 nM | COCCN(CCc1ccc(-c2cc3nccc(Oc4ccc(NC(=O)NC5CC5)cc4F)c3s2)nc1)C(=O)CO [Compound 46, N-(2-(6-(7-(4-(3-cyclopropylureido)-2-fluorophenoxy)thieno[3,2-b]pyridin-2-yl)pyridin-3-yl)ethyl)-2-hydroxy-N-(2-methoxyethyl)-acetamide] |
| < 50 nM | CC(C)(C)OC(=O)N1CCN(Cc2ccc(-c3cc4nccc(Oc5ccc(NC(=O)NC6CC6)cc5F)c4s3)nc2)CC1 [Compound 48, tert-butyl 4-((6-(7-(4-(3-cyclopropylureido)-2-fluorophenoxy)thieno[3,2-b]-pyridin-2-yl)pyridin-3-yl)methyl)piperazine-1-carboxylate] |
| < 50 nM | COCCN(CCOC)Cc1ccc(-c2cc3nccc(Oc4ccc(NC(=O)NC5CC5)cc4F)c3s2)nc1 [Compound 50, 1-(4-(2-(5-((bis(2-methoxyethyl)amino)methyl)pyridin-2-yl)thieno[3,2-b]-pyridin-7-yloxy)-3-fluorophenyl)-3-cyclopropylurea] |
| < 50 nM | CN(CCO)Cc1ccc(-c2cc3nccc(Oc4ccc(NC(=O)NC5CC5)cc4F)c3s2)nc1 [Compound 50-A] |
| < 50 nM | O=C(Nc1ccc(Oc2ccnc3cc(-c4ccc(CN5CC[C@H](O)C5)cn4)sc23)c(F)c1)NC1CC1 [Compound 52, (S)-1-cyclopropyl-3-(3-fluoro-4-(2-(5-((3-hydroxypyrrolidin-1-yl)methyl)pyridin-2-yl)thieno[3,2-b]-pyridin-7-yloxy)phenyl)urea] |
| < 50 nM | O=C(Nc1ccc(Oc2ccnc3cc(-c4ccc(CN5CC[C@@H](O)C5)cn4)sc23)c(F)c1)NC1CC1 [Compound 53, (R)-1-cyclopropyl-3-(3-fluoro-4-(2-(5-((3-hydroxypyrrolidin-1-yl)methyl)pyridin-2-yl)thieno[3,2-b]-pyridin-7-yloxy)phenyl)urea] |
| < 50 nM | CN(C)[C@H]1CCN(Cc2ccc(-c3cc4nccc(Oc5ccc(NC(=O)NC6CC6)cc5F)c4s3)nc2)C1 [Compound 54, (S)-1-cyclopropyl-3-(4-(2-(5-((3-(dimethylamino)pyrrolidin-1-yl)methyl)pyridin-2-yl)thieno[3,2-b]pyridin-7-yloxy)-3-fluorophenyl)urea] |

Second part, the compound before the results:

| Compound | IC50 |
| --- | --- |
| 1-(2-(6-(7-(2-fluoro-4-nitrophenoxy)thieno[3,2-b]pyridin-2-yl)pyridin-3-yl)ethyl)pyrrolidin-2-one [Compound 293] | < 50 nM |
| CN(C(=O)OC(C)(C)C)C1CCN(Cc2ccc(-c3cc4nccc(Oc5ccc(NC(=O)NC6CC6)cc5F)c4s3)nc2)CC1 [342-A] | < 50 nM |
| COCCN(Cc1ccc(-c2cc3nccc(Oc4ccc(NC(=O)NC5CC5)cc4F)c3s2)nc1)C(=O)N(C)C [Compound 4, N-[3-((6-(7-(4-(3-cyclopropylureido)-2-fluorophenoxy)thieno[3,2-b]pyridin-2-yl)pyridin-3-yl)methyl)]-N-(1,1-dimethyl)-N-[3-(2-methoxyethyl)]urea] | < 50 nM |
| COCCN(Cc1ccc(-c2cc3nccc(Oc4ccc(NC(=O)NC5CC5)cc4F)c3s2)nc1)CC(F)(F)F [Compound 8, 1-cyclopropyl-3-(3-fluoro-4-(2-(5-(((2-methoxyethyl)(2,2,2-trifluoroethyl)amino)-methyl)pyridin-2-yl)thieno [3,2-b]pyridin-7-yloxy)phenyl)urea] | 50 to 100 nM |
| CC(=O)N(CCO)Cc1ccc(-c2cc3nccc(Oc4ccc(NC(=O)NC5CC5)cc4F)c3s2)nc1 [Compound 10, N-((6-(7-(4-(3-cyclopropylureido)-2-fluorophenoxy)thieno[3,2-b]pyridin-2-yl)pyridin-3-yl)methyl)-N-(2-hydroxyethyl)acetamide] | < 50 nM |
| COCCNCc1ccc(-c2cc3nccc(Oc4ccc(NC(=O)CC5CC5)cc4F)c3s2)nc1 [Compound 13, 2-cyclopropyl-N-(3-fluoro-4-(2-(5-((2-methoxyethylamino)methyl)pyridin-2-yl)-thieno[3,2-b]pyridin-7-yloxy)phenyl)acetamide] | 50 to 100 nM |
| CCOC(Nc1ccc(Oc2ccnc3cc(-c4ccc(CNCCOC)cn4)sc23)c(F)c1)C(F)(F)F (centres unmarked) [Compound 14, N-(1-ethoxy-2,2,2-trifluoroethyl)-3-fluoro-4-(2-(5-((2-methoxyethylamino)-methyl)pyridin-2-yl)thieno[3,2-b]pyridin-7-yloxy)aniline] | ≥ 250 nM |
| COCCNCc1ccc(-c2cc3nccc(Oc4ccc(NC(CC(=O)Nc5ccccc5)C(F)(F)F)cc4F)c3s2)nc1 (centres unmarked) [Compound 19, 4,4,4-trifluoro-3-(3-fluoro-4-(2-(5-((2-methoxyethylamino)methyl)pyridin-2-yl)thieno[3,2-b]pyridin-7-yloxy)phenylamino)-N-phenylbutanamide] | < 50 nM |
| COCCNCc1ccc(-c2cc3nccc(Oc4ccc(NC(CC(=O)Nc5ccc(F)cc5)C(F)(F)F)cc4F)c3s2)nc1 (centres unmarked) [Compound 20, 4,4,4-trifluoro-3-(3-fluoro-4-(2-(5-((2-methoxyethylamino)methy)pyridin-2-yl)thieno[3,2-b]pyridin-7-yloxy)phenylamino)-N-(4-fluorophenyl)butanamide] | < 50 nM |
| COCCNCc1ccc(-c2cc3nccc(Oc4ccc(NC(CC(=O)N(C)c5ccccc5)C(F)(F)F)cc4F)c3s2)nc1 (centres unmarked) [Compound 21, 4,4,4-trifluoro-3-(3-fluoro-4-(2-(5-((2-methoxyethylamino)methyl)pyridin-2-yl)thieno[3,2-b]pyridin-7-yloxy)phenylamino)-N-methyl-N-phenylbutanamide] | < 50 nM |
| COCCNCc1ccc(-c2cc3nccc(Oc4ccc(NC(=O)NC5CC5)nc4)c3s2)nc1 [Compound 29, 1-cyclopropyl-3-(5-(2-(5-((2-methoxyethylamino)methyl)pyridin-2-yl)thieno[3,2-b]-pyridin-7-yloxy)pyridin-2-yl)urea] | 100 to 250 nM |
| COCCN(Cc1ccc(-c2cc3nccc(Oc4ccc(NC(=O)NC5CC5)nc4)c3s2)nc1)C(=O)CO [Compound 31, N-((6-(7-(6-(3-cyclopropylureido)pyridin-3-yloxy)thieno[3,2-b]pyridin-2-yl)pyridin-3-yl)methyl)-2-hydroxy-N-(2-methoxyethyl)acetamide] | 100 to 250 nM |
| COCCN(Cc1ccc(-c2cc3nccc(Oc4ccc(NC(=O)NC5CC5)cc4F)c3s2)nc1)C(=O)COP(=O)(O)O [Compound 34, 2-(((6-(7-(4-(3-cyclopropylureido)-2-fluorophenoxy)thieno[3,2-b]pyridin-2-yl)pyridin-3-yl)methyl)(2-methoxyethyl)amino)-2-oxoethyl dihydrogen phosphate] | < 50 nM |
| CCNC(=O)N(CCOC)Cc1ccc(-c2cc3nccc(Oc4ccc(NC(=O)NC5CC5)c(F)c4F)c3s2)nc1 [Compound 35, N-[3-((6-(7-(4-(3-cyclopropylureido)-2,3-difluorophenoxy)thieno[3,2-b]pyridin-2-yl)pyridin-3-yl)methyl)]-N-(1-ethyl)-N-(2-methoxyethyl)urea] | < 50 nM |
| CCNC(=O)N(CCOC)Cc1ccc(-c2cc3nccc(Oc4ccc(NC(=O)NC5CC5)nc4)c3s2)nc1 [Compound 37, N-[3((6-(7-(6-(3-cyclopropylureido)-pyridin-3-yloxy)thieno[3,2-b]-pyridin-2-yl)pyridin-3-yl)methyl)]-N-(1-ethyl)-N-[3-(2-methoxyethyl)]urea] | 100 to 250 nM |
| CCNC(=O)N(CCOC)CCc1ccc(-c2cc3nccc(Oc4ccc(NC(=O)NC5CC5)cc4F)c3s2)nc1 [Compound 38, N-[3-(2-(6-(7-(4-(3-cyclopropylureido)-2-fluorophenoxy)-thieno[3,2-b]-pyridin-2-yl)pyridin-3-yl)ethyl)]-N-(1-ethyl)-N-[3-(2-methoxyethyl)]urea] | < 50 nM |
| COCCN(Cc1ccc(-c2cc3nccc(Oc4ccc(NC(CC(=O)Nc5ccc(F)cc5)C(F)(F)F)cc4F)c3s2)nc1)C(C)=O (centres unmarked) [Compound 39] | < 50 nM |
| COCCN(Cc1ccc(-c2cc3nccc(Oc4ccc(NC(=O)NC5CC5)nc4)c3s2)nc1)C(C)=O [Compound 40, N-((6-(7-(6-(3-cyclopropylureido)-pyridin-3-yloxy)thieno[3,2-b]-pyridirin-2-yl)pyridin-3-yl)methyl)-N-(2-methoxyethyl)-acetamide] | 50 to 100 nM |
| COCCN(Cc1ccc(-c2cc3nccc(Oc4ccc(NC(=O)CC5CC5)cc4F)c3s2)nc1)C(C)=O [Compound 42, 2-cyclopropyl-N-(3-fluoro-4-(2-(5-((N-(2-methoxyethyl)-acetamido)methyl)pyridin-2-yl)thieno[3,2-b]-pyridin-7-yloxy)phenyl)-acetamide] | 50 to 100 nM |
